Patent publication US20120295960A1, “TREATMENT REGIMEN FOR PARKINSON'S DISEASE” (priority 2011, published 2012)

System: MPTP macaques
Assay: Dyskinesia studies in drug-naive MPTP primates (video dyskinesia analysis, L-Dopa and apomorphine challenge)
Text: Neurotoxin MPTP was first administrated to 23 macaques until they developed severe Parkinsonism, these were then divided into experimental groups according to the following experiments: • 1. […] The animals were then observed from 2 up to 44 months. A subset of these primates were included for histology, microdialysis, electrophysiology, and metabolism studies. • 2. […] For the latter group, five MPTP macaques received daily oral L-Dopa for 12 weeks (MPTP-L-Dopa group, n=5). • 3. In the third experiment the potential of dyskinesia induction in MPTP macaques was studied by challenging them with a short acting D1/D2 dopaminergic agonist, apomorphine, then with an acute oral dose of L-Dopa. […] Animals were then challenged with L-Dopa and the number of dyskinesias was assessed with a specific software (The Observer®, Noldus)
All animals were assessed daily for their general clinical condition with special attention paid to the nutritional status. At the same time, the general neurological state of each macaque was assessed both pre- and post-lentiviral injections. To objectively quantify our neurological observations, animals were video-taped for 30 minutes before MPTP lesioning and at regular intervals following viral injections. The videos were then analyzed off-line by an examiner blinded to the experimental conditions. […]

## CN1CCc2cccc3c2[C@H]1Cc1ccc(O)c(O)c1-3 [apomorphine]
MPTP-long term and MPTP-LacZ primates
  locomotor activity after acute administration: levels similar to that of normal primates
MPTP-long term and MPTP-Lenti-LacZ animals
  dyskinesia after acute administration: debilitating choreiform and dystonic movements
